Consider six compounds from EP0825187A1, “Condensed pyridazinyl guanidines, their production and use” (TAKEDA CHEMICAL INDUSTRIES, LTD., priority 1996, dated 1998).

Where a name gives a salt, the structure may show the parent alone.

The assay deals with T1, Na-H exchange (Rattus norvegicus, UniProt P26431).
T1 construct: The blood was centrifuged at 3000 r.p.m. for […] to obtain platelet rich plasma (PRP); from tissue; host or cells: platelets in platelet rich plasma from the blood of male Wistar rats
Description: Inhibition of platelet swelling (light transmittance of platelet rich plasma after sodium propionate), indicator of Na-H exchange inhibition. To be noted: rat PRP, value one minute after sodium propionate solution (pH 6.7, 37 °C), difference between 1% DMSO and HOE-642 (10^-5 M) taken as 100. Type of assay: cell-based, Wistar rats. Here is the method:
Male Wistar rats (350-450 g) were anesthetized with sodium pentobarbital (50 mg/kg, i.p.). Using a disposable syringe pre-filled with 1.5 ml of a 3.8% citric acid solution, 8.5 ml of blood was collected from the abdominal aorta. The blood was centrifuged at 3000 r.p.m. for […] to obtain platelet rich plasma (PRP). The number of platelets in the PRP was counted by an automatic hemocytometer (Sysmex 2500, TOA Medical Electronics). The PRP was diluted with physiological saline to make the concentration of 40 x 10^4 platelets per microliter. A platelet aggregometer (Hematoracer, Niko Bioscience) was used for mesurement of the platelet swelling. 200 Microliters of the PRP was poured into a cuvette and 600 µl of a sodium propionate solution (Na propionate 135, glucose 10: HEPES 20, CaCl2 1, MgCl2 1, Units mM, pH 6.7) was added while stirring at 37 °C. The change in the light transmittance of PRP which was an indicator of the platelet swelling was recorded on a plotter. The test compound was added 3 minutes before addition of the sodium propionate solution. Test compounds were dissolved in dimethyl sulfoxide (DMSO). The final concentration of DMSO was adjusted to 1%. The values obtained one minute after addition of the sodium propionate solution were subjected to analysis. The rate of the inhibition of the test compound on the increase of the light transmittance was calculated designating the difference obtained between the treatments with 1% DMSO and HOE-642 (10^-5 M) as 100. […]

T1 sequence (P26431 whole entry): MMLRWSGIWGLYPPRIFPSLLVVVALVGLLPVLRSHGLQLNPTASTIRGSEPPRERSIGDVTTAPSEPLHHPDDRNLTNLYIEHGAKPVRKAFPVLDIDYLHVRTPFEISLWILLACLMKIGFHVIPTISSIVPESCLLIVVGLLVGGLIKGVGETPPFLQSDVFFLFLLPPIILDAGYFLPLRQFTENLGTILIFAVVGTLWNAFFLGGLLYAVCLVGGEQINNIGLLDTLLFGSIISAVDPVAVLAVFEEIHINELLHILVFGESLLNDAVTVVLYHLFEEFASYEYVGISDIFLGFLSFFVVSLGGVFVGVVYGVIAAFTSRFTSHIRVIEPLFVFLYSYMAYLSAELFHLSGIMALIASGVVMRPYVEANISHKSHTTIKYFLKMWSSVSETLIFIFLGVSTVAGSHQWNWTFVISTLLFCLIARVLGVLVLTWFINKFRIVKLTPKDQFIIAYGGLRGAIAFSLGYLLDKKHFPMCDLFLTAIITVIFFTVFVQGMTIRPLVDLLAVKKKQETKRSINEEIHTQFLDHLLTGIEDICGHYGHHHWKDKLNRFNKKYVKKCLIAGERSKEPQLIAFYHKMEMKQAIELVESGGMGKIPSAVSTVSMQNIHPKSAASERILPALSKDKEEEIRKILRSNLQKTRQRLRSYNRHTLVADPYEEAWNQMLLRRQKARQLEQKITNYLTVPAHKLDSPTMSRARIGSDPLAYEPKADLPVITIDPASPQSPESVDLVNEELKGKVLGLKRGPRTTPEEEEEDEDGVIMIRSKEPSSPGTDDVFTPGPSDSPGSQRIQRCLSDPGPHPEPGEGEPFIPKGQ

On to “8-methyl-4-(2-methylphenyl)phthalazin-1-ylguanidine [Compound 44]”, for which the “Inhibitory ratio (%)” value (1µM) came to 55% and the “Inhibitory ratio (%)” value (3µM) turned out to be 73%.
The corresponding values for `NC(N)=Nc1nnc(-c2ccccc2)c2cccc(I)c12` [Compound 4, 8-iodo-4-phenylphthalazin-1-ylguanidine hydrochloride] are 66% and 78%.
In the case of `NC(N)=Nc1nnc(-c2ccccc2)c2cccc(Br)c12` [Compound 13, 8-bromo-4-phenylphthalazin-1-ylguanidine], the “Inhibitory ratio (%)” value is, setting by setting: (1µM) 60%; (3µM) 99%.
On the same counts, the results for `Cc1ccccc1-c1nnc(N=C(N)N)c2c(Br)cccc12` [Compound 24, 8-bromo-4-(2-methylphenyl)phthalazin-1-ylguanidine] are 62% and 78%.
On the same counts, the results for `Cc1ccccc1-c1nnc(N=C(N)N)c2c(I)cccc12` [Compound 28, 8-iodo-4-(2-methylphenyl)phthalazin-1-ylguanidine] are 66% and 96%.
Take `NC(N)=Nc1nnc(-c2ccc(F)cc2)c2cccc(I)c12` [Compound 36, 4-(4-fluorophenyl)-8-iodophthalazin-1-ylguanidine]: the “Inhibitory ratio (%)” value is on record as 58% (1µM) and 78% (3µM).
